Results taken from ChEMBL document CHEMBL4130341 (Medchemcomm, 2016).
Blank lines part the entries; values can stand above or below the molecule they belong to. Active and inactive are the calls of the source. The rule behind the calls is not given here.

How the values were obtained:
[1] = target: T1, Nuclear factor erythroid 2-related factor 2 (Mus musculus) (UniProt Q60795); test: Activation of Nrf2 in wild type mouse Hepa1c1c7 cells cytosolic fraction assessed as induction of quinone reductase activity at 10 uM using 2,6-DCIP as substrate in presence of NADH incubated for 48 hrs measured for 1 min relative to control
T1 sequence (whole entry): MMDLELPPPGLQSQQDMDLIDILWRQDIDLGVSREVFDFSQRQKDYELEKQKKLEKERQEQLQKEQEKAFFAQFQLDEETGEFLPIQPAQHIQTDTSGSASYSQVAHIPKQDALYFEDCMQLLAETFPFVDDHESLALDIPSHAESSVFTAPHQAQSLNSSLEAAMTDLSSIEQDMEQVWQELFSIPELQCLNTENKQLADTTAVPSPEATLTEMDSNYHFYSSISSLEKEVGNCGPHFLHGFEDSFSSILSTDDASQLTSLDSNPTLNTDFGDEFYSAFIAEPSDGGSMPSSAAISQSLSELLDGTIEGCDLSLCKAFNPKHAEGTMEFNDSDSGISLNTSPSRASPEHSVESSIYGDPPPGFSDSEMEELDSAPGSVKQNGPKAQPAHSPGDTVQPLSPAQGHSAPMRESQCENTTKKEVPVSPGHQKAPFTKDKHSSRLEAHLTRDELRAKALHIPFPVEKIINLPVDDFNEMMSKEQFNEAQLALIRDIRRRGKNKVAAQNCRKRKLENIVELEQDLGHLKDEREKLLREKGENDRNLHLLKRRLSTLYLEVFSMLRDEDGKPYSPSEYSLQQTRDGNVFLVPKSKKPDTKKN

[2] = target: T1, Nuclear factor erythroid 2-related factor 2 (Mus musculus); test: Activation of Nrf2 in mutant mouse BpRc1 cells cytosolic fraction assessed as induction of quinone reductase activity at 10 uM using 2,6-DCIP as substrate in presence of NADH incubated for 48 hrs measured for 1 min relative to control; format: cell-based
[3] = target: T1, Nuclear factor erythroid 2-related factor 2 (Mus musculus); test: Ratio of activation of wild type Nrf2 in mouse Hepa1c1c7 cells cytosolic fraction to activation of Nrf2 in mutant mouse BpRc1 cells cytosolic fraction; format: cell-based
[4] = Cytotoxicity against wild type mouse Hepa1c1c7 cells after 48 hrs by SRB assay; format: functional, cell-based; details: Hepa-1c1c7, 48 h
[5] = target: T1, Nuclear factor erythroid 2-related factor 2 (Mus musculus); test: Activation of Nrf2 in wild type mouse Hepa1c1c7 cells cytosolic fraction assessed as induction of quinone reductase activity using 2,6-DCIP as substrate in presence of NADH incubated for 48 hrs measured for 1 min
[6] = Ratio of IC50 for cytotoxicity against wild type mouse Hepa1c1c7 cells to CD for activation of Nrf2 in wild type mouse Hepa1c1c7 cells cytosolic fraction
[7] = Cytotoxicity against mutant mouse BpRc1 cells after 48 hrs by SRB assay; format: functional, cell-based; details: BPrc1, 48 h
[8] = target: T1, Nuclear factor erythroid 2-related factor 2 (Mus musculus); test: Activation of Nrf2 in mutant mouse BpRc1 cells cytosolic fraction assessed as induction of quinone reductase activity using 2,6-DCIP as substrate in presence of NADH incubated for 48 hrs measured for 1 min; format: cell-based
[9] = Ratio of IC50 for cytotoxicity against mutant mouse BpRc1 cells to CD for activation of Nrf2 in mutant mouse BpRc1 cells cytosolic fraction
[10] = target: T1, Nuclear factor erythroid 2-related factor 2 (Mus musculus); test: Ratio of CD for activation of Nrf2 in mutant mouse BpRc1 cells cytosolic fraction to CD for activation of Nrf2 in wild type mouse Hepa1c1c7 cells cytosolic fraction; format: cell-based
MCF7 [11] = test: Cytotoxicity against human MCF7 cells assessed as cell survival at 100 uM after 24 hrs by SRB assay relative to control; format: functional; details: for viability at 100 µM: MCF7, 24 h, read-out: Survival
HT-29 [12] = test: Cytotoxicity against human HT-29 cells assessed as cell survival at 100 uM after 24 hrs by SRB assay relative to control; format: functional; details: HT-29, 24 h, read-out: Survival
HK-2 = test: Genotoxicity in human HK2 cells assessed as induction of DNA strand breakage at 20 uM after 6 hrs by DAPI staining based alkaline comet assay; format: toxicity, cell-based; details: hk-2, 6 h
Salmonella typhimurium = test: Mutagenicity in Salmonella typhimurium TA98 in presence of mouse liver S9 fraction by Ames test; format: toxicity, organism-based; details: salmonella enterica subsp. enterica serovar typhimurium
TK-10 = test: Cytotoxicity against human TK10 cells assessed as cell survival after 24 hrs by SRB assay; format: functional, cell-based; details: TK-10, 24 h
MCF7 [13] = test: Cytotoxicity against human MCF7 cells assessed as cell survival after 24 hrs by SRB assay; format: functional, cell-based; details: MCF7, 24 h
HT-29 [14] = test: Cytotoxicity against human HT-29 cells assessed as cell survival after 24 hrs by SRB assay; format: functional, cell-based; details: HT-29, 24 h
[15] = target: T1, Nuclear factor erythroid 2-related factor 2 (Mus musculus); test: Induction of Nrf2 nuclear translocation in mouse Hepa1c1c7 cells at 20 uM after 6 hrs by DAPI/Hoechst 33258 staining-based immunofluorescence method; format: cell-based
Rattus norvegicus [16] = test: In vivo induction of CYP450 activity in Wistar rat liver microsomal fraction at 15 mg/kg, po qd administered over 2 weeks by measuring EROD activity using 7-ethoxyresorufine as substrate measured for 5 mins; format: ADME, organism-based; details: microsomes
Rattus norvegicus [17] = test: In vivo induction of CYP450 activity in Wistar rat colon microsomal fraction at 15 mg/kg, po qd administered over 2 weeks by measuring EROD activity using 7-ethoxyresorufine as substrate measured for 5 mins; format: ADME, organism-based; details: microsomes
Rattus norvegicus [18] = test: In vivo induction of CYP450 activity in Wistar rat mammary gland microsomal fraction at 15 mg/kg, po qd administered over 2 weeks by measuring EROD activity using 7-ethoxyresorufine as substrate measured for 5 mins; format: ADME, organism-based; details: microsomes
Rattus norvegicus [19] = test: Toxicity in Wistar rat assessed as effect on body weight at 15 mg/kg, po qd administered over 2 weeks; format: organism-based; details: in vivo, 336 h
Rattus norvegicus [20] = test: Toxicity in Wistar rat assessed as effect on behavior at 15 mg/kg, po qd administered over 2 weeks; format: organism-based; details: in vivo, 336 h

Structure (SMILES): O=C(/C=C/c1ccc2ccccc2c1)c1ccccc1O
fold change (FC) [1]: 2.96
fold change (FC) [2]: 1.39
Ratio [3]: 2.1
IC50 [4]: 85 µM
CD [5]: 0.5 µM
Ratio [6]: 170
IC50 [7]: 85 µM
CD [8]: 20 µM
Ratio [9]: 4.2
Ratio [10]: 40
viability at 100 µM (MCF7 [11]): < 50%
viability at 100 µM (HT-29 [12]): < 50%
Activity (HK-2): Non-Toxic
Activity (Salmonella typhimurium): Non-Toxic

fold change (FC) [1]: 3.04
fold change (FC) [2]: 0.57
Structure (SMILES): O=C(/C=C/c1ccccc1)c1ccc2ccccc2c1O

Structure (SMILES): O=C(/C=C/c1cccc(Br)n1)c1ccccc1O
fold change (FC) [1]: 1.23
fold change (FC) [2]: 1.18
Ratio [3]: 1
viability at 100 µM (MCF7 [11]): < 50%
viability at 100 µM (HT-29 [12]): < 50%
IC50 (TK-10): 18 µM
Activity (HK-2): Non-Toxic
Activity (Salmonella typhimurium): Non-Toxic

Structure (SMILES): O=C(/C=C/c1ccnc2ccccc12)c1cccc2ccccc12
fold change (FC) [1]: 1.43
fold change (FC) [2]: 1.83
Ratio [3]: 0.8
Activity (MCF7 [11]): Active
Activity (Salmonella typhimurium): Non-Toxic

fold change (FC) [1]: 5.42
fold change (FC) [2]: 1.34
Ratio [3]: 4
Structure (SMILES): O=C(/C=C/c1ccnc2ccccc12)c1ccccc1O
Activity (Salmonella typhimurium): Non-Toxic

Structure (SMILES): O=C(CC(O)c1ccccc1)c1ccc2ccccc2c1 (stereo unspecified)
fold change (FC) [1]: 5.04
fold change (FC) [2]: 1.74
Ratio [3]: 2.9
Activity (MCF7 [11]): Active
Activity (HK-2): Non-Toxic
Activity (Salmonella typhimurium): Non-Toxic

Structure (SMILES): O=C(/C=C/c1ccccc1)c1ccc2ccccc2c1
fold change (FC) [1]: 0.96
fold change (FC) [2]: 1.21
Ratio [3]: 0.8
viability at 100 µM (MCF7 [11]): < 50%
viability at 100 µM (HT-29 [12]): < 50%
IC50 (MCF7 [13]): 28 µM
IC50 (HT-29 [14]): 32 µM
Activity (HK-2): Non-Toxic
Activity (Salmonella typhimurium): Non-Toxic

Structure (SMILES): O=C(/C=C/c1cncc(Br)c1)c1ccccc1O
fold change (FC) [1]: 1.51
fold change (FC) [2]: 1.03
Ratio [3]: 1.5
Activity (MCF7 [11]): Active
IC50 (TK-10): 20 µM
Activity (Salmonella typhimurium): Non-Toxic

Structure (SMILES): O=C(/C=C/c1ccnc2ccccc12)c1ccc2ccccc2c1O
fold change (FC) [1]: 1.48
fold change (FC) [2]: 0.85
Activity (MCF7 [11]): Active

Structure (SMILES): O=C(/C=C/c1cccc2ccccc12)c1ccccc1O
fold change (FC) [1]: 3.21
fold change (FC) [2]: 2.21
Ratio [3]: 1.5
IC50 [4]: 33 µM
CD [5]: 11 µM
Ratio [6]: 3
IC50 [7]: 45 µM
CD [8]: 10 µM
Ratio [9]: 4.5
Ratio [10]: 0.91
Activity [15]: Active
viability at 100 µM (MCF7 [11]): < 50%
viability at 100 µM (HT-29 [12]): < 50%
IC50 (TK-10): 14 µM
Activity (HK-2): Non-Toxic
Activity (Salmonella typhimurium): Non-Toxic
Activity (Rattus norvegicus [16]): Toxic
Activity (Rattus norvegicus [17]): Non-Toxic
Activity (Rattus norvegicus [18]): Non-Toxic
Activity (Rattus norvegicus [19]): Non-Toxic
Activity (Rattus norvegicus [20]): Non-Toxic

Structure (SMILES): O=C(/C=C/c1cccc2ccccc12)c1c(O)ccc2ccccc12
fold change (FC) [1]: 1.29
fold change (FC) [2]: 0.82
Ratio [3]: 1.6
viability at 100 µM (MCF7 [11]): < 50%
viability at 100 µM (HT-29 [12]): < 50%
Activity (HK-2): Non-Toxic
Activity (Salmonella typhimurium): Non-Toxic

Structure (SMILES): O=C(/C=C/c1ccnc2ccccc12)c1ccc2ccccc2c1
fold change (FC) [1]: 1.28
fold change (FC) [2]: 1.25
Ratio [3]: 1
Activity (MCF7 [11]): Active
Activity (Salmonella typhimurium): Non-Toxic

Structure (SMILES): O=C(/C=C/c1ccc2ccccc2c1)c1c(O)ccc2ccccc12
fold change (FC) [1]: 1.76
fold change (FC) [2]: 0.79
Ratio [3]: 2.2
Activity (MCF7 [11]): Active
Activity (HK-2): Non-Toxic
Activity (Salmonella typhimurium): Non-Toxic

Structure (SMILES): O=C(/C=C/c1ccc2ccccc2c1)c1ccc2ccccc2c1O
fold change (FC) [1]: 1.44
fold change (FC) [2]: 0.97
Ratio [3]: 1.5
Activity (MCF7 [11]): Active
Activity (Salmonella typhimurium): Non-Toxic

Structure (SMILES): O=C(/C=C/c1cccc2ccccc12)c1ccccc1
fold change (FC) [1]: 0.88
fold change (FC) [2]: 0.92
Ratio [3]: 1
Activity (MCF7 [11]): Active
Activity (HK-2): Non-Toxic
Activity (Salmonella typhimurium): Non-Toxic

CD [5]: 1 µM
CD [8]: 6 µM
Ratio [10]: 6
Activity [15]: Active
Structure (SMILES): CC(C)(C)c1cc(O)ccc1O [E319]
IC50 [4]: 147 µM
Ratio [6]: 147
IC50 [7]: 60 µM
Ratio [9]: 10

Structure (SMILES): O=C(/C=C/c1cncc(Br)c1)c1ccc2ccccc2c1O
fold change (FC) [1]: 2.3
fold change (FC) [2]: 1.13
Ratio [3]: 2
Activity (MCF7 [11]): Active
Activity (HK-2): Non-Toxic
Activity (Salmonella typhimurium): Non-Toxic

Structure (SMILES): O=C(CC(CC(=O)c1ccccc1)c1cccc2ccccc12)c1ccccc1
fold change (FC) [1]: 0.83
fold change (FC) [2]: 2.38
Ratio [3]: 0.4
Activity (MCF7 [11]): Active
Activity (Salmonella typhimurium): Non-Toxic

Structure (SMILES): O=C(/C=C/c1ccccn1)c1ccccc1O
Activity (HK-2): Non-Toxic

Structure (SMILES): O=C(/C=C/c1ccc2ccccc2c1)c1ccccc1
fold change (FC) [1]: 0.95
fold change (FC) [2]: 1.41
Ratio [3]: 0.7
Activity (MCF7 [11]): Active
Activity (HK-2): Non-Toxic
Activity (Salmonella typhimurium): Non-Toxic

fold change (FC) [1]: 4.45
fold change (FC) [2]: 1.49
Ratio [3]: 2.99
CD [5]: 0.79 µM
CD [8]: 80 µM
Ratio [10]: 101
Structure (SMILES): O=c1cc(-c2ccc(Br)cc2)oc2ccccc12
IC50 [4]: 85 µM
Ratio [6]: 107
IC50 [7]: 150 µM
Ratio [9]: 1.9

Structure (SMILES): O=C(/C=C/c1ccc(Br)cc1)c1ccccc1O
Activity (HK-2): Non-Toxic

Structure (SMILES): O=C(CC(O)c1ccccc1)c1c(O)ccc2ccccc12 (stereo unspecified)
fold change (FC) [1]: 3.31
fold change (FC) [2]: 1.14
Ratio [3]: 2.9
Activity (MCF7 [11]): Active

Structure (SMILES): O=C(/C=C/c1ccccc1)c1cccc2ccccc12
fold change (FC) [1]: 0.98
fold change (FC) [2]: 1.13
Ratio [3]: 0.9
viability at 100 µM (MCF7 [11]): < 50%
viability at 100 µM (HT-29 [12]): < 50%
IC50 (TK-10): 20 µM
Activity (HK-2): Non-Toxic
Activity (Salmonella typhimurium): Non-Toxic
